Test results: patent publication US11412737B2, “Mixtures of beflubutamid or optically enriched forms thereof with a second herbicide” (FMC Corporation, priority 2016, dated 2022)

Experiments:
Italian ryegrass (LOLMU) = assay: post-emergence test, weed control; assay type: in vivo, Lolium perenne. multiflorum; settings: post-emergent, 28 DAT; for control of Italian rygrass (LOLMU): combination of both
Method: (§1) Test compositions containing the test compounds were diluted with water to provide the appropriate test rate concentrations.
(§2) For post-emergence testing, seeds of each species for each rate of application of each herbicide solution were planted in 7.5 cm×7.5 cm plastic pots filled with potting soil. The seeds were germinated and the resulting plants were allowed to grow in a greenhouse until they reached a growth stage, such as height, suitable for testing. Treatments were applied using compressed air in a track spray chamber at 30 gallons/acre (280 L/ha) using a TeeJet 8001E nozzle at 40 psi (2.76 bars). Pots of post-emergent treated plants were returned to the greenhouse and not watered for 24 hours after treatment. Thereafter they were regularly watered and fertilized for the duration of the test.
(§3) The control of weeds was evaluated in each experimental test at 21 for wheat and 28 days after treatment (DAT) for all species. Data were analyzed using Minitab software at 95% confidence interval. The results, shown as an average of the replications, were compared with results observed in untreated control flats in the same tests. Percent control was determined by a method similar to the 0 to 100 rating system disclosed in “Research Methods in Weed Science,” 2nd ed., B. Truelove, Ed.; Southern Weed Science Society; Auburn University, Auburn, Ala., 1977. The rating system is as follows in Table 1.

[1] = tested on: Common lambsquarters (CHEAL); assay: pre-emergence test, weed control; assay type: in vivo, Chenopodium album; settings: pre-emergent, 28 DAT
In short: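 Visual 0–100 ratings of percent control against untreated flats, averaged across four replicate flats, were taken at 28 days after treatment for all species (21 days for wheat). Treatments went onto freshly seeded, watered soil before emergence at a spray volume of 30 gallons per acre.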

Silky windgrass (APSEV) = assay: post-emergence test, weed control; assay type: in vivo; settings: post-emergent, 28 DAT, height 1-1.5 cm, rate g ai/ha by row: r25 94, r26 125, r27 188, r28 125, r29 250, r30 94+125, r31 125+125, r32 188+125, r33 94+250, r34 125+250, r35 188+250
Green foxtail (SETVI) = assay: post-emergence test, weed control; assay type: in vivo, Setaria viridis; settings: post-emergent, 28 DAT, BFL at 187.5 g, combination of both
Method: as §1, §2, §3

Redrice (ORYSA) = assay: post-emergence test, weed control; assay type: in vivo; settings: post-emergent, 28 DAT; for percentage of weed control, ORYSA: height 8 cm, rate g ai/ha by row: r25 94, r26 125, r27 188, r28 125, r29 250, r30 94+125, r31 125+125, r32 188+125, r33 94+250, r34 125+250, r35 188+250
Method: as §1, §2, §3

Palmer amaranth (AMAPA) = assay: pre-emergence test, weed control; assay type: in vivo, Amaranthus palmeri; settings: pre-emergent, 28 DAT; BFL at 125 g/ha, DCI at 125 g/ha, combination of both
Method: as §1
For pre-emergence testing, four disposable fiber flats (6 inch by 10 inch) for each rate of application of each herbicide solution were filled with top soil, to which seeds of each species were planted in furrows made by a template pressed on the top of the soil. The furrows were covered with soil after planting the seed and were watered well before application of the test compounds.
Fiber flats designated for treatment were placed in a spray chamber having a static platform and a movable sprayer and the height of the spray nozzle was 10.5 inches above the soil level. Once the sprayer was calibrated using water for spray volume of 30 gallons per acre, flats were sprayed with sprayer at a speed to receive a coverage equivalent of 30 gallons per acre. The application rates are those shown in the Tables below for the individual herbicidal solutions and the herbicide compositions of this invention. The pre-emergence flats were immediately placed in the greenhouse and watered lightly after treatment. Thereafter they were regularly watered and fertilized for the duration of the test.
as §3

Annual bluegrass (POAAN) = assay: post-emergence test, weed control; assay type: in vivo, Poa annua; settings: post-emergent, 28 DAT, height 1-2 cm, rate g ai/ha by row: r7 94, r8 125, r9 188, r10 125, r11 250, r12 94+125, r13 125+125, r14 188+125, r15 94+250, r16 125+250, r17 188+250
Method: as §1, §2, §3

Wild oat (AVEFA) = assay: post-emergence test, weed control; assay type: in vivo, Avena fatua; settings: post-emergent, 28 DAT; for percentage of weed control, AVEFA: height 11 cm, rate g ai/ha by row: r25 94, r26 125, r27 188, r28 125, r29 250, r30 94+125, r31 125+125, r32 188+125, r33 94+250, r34 125+250, r35 188+250; for control of wild oats (AVEFA): DCI at 250 g/ha
Method: as §1, §2, §3

Barnyardgrass (ECHCG) = assay: post-emergence test, weed control; assay type: in vivo, Echinochloa crus-galli; settings: post-emergent, 28 DAT
Method: as §1
For post-emergence testing, seeds of each species for each rate of application of each herbicide solution were planted in 7.5 cm×7.5 cm plastic pots filled with potting soil. The seeds were germinated and the resulting plants were allowed to grow in a greenhouse until they reached a growth stage, such as height, suitable for testing. […] Pots of post-emergent treated plants were returned to the greenhouse and not watered for 24 hours after treatment. Thereafter they were regularly watered and fertilized for the duration of the test.
The control of weeds was evaluated in each experimental test at 21 for wheat and 28 days after treatment (DAT) for all species. […] The rating system is as follows in Table 1.

[2] = BFL at 125 g/ha, DCI at 125 g/ha, combination of both
[3] = BFL at 187.5 g, PYX at 90 g, combination of both

SMILES: CCC(Oc1ccc(F)c(C(F)(F)F)c1)C(=O)NCc1ccccc1 (racemic) [BFL, 2-[4-fluoro-3-(trifluoromethyl)phenoxy]-N-(phenylmethyl)butanamide]
- percentage of weed control, LOLMU (Italian ryegrass (LOLMU); height 5-6 cm, rate g ai/ha by row: r25 94, r26 125, r27 188, r28 125, r29 250, r30 94+125, r31 125+125, r32 188+125, r33 94+250, r34 125+250, r35 188+250): 0%
- control of Italian rygrass (LOLMU) (Italian ryegrass (LOLMU); BFL at 188 g/ha, DCI at 125 g/ha): 0%
- control of Italian rygrass (LOLMU) (Italian ryegrass (LOLMU); DCI at 250 g/ha, BFL at 125 g/ha): 0%
- control of lambsquarters (CHEAL) [1, 2]: 42%
- percentage of weed control, CHEAL ([1]; rate g ai/ha by row: r4 94, r5 50, r6 100, r7 52.5, r8 70, r9 94+52.5, r10 94+70, r11 50+52.5, r12 50+70, r13 100+52.5, r14 100+70): 16%
- percentage of weed control, APSEV (Silky windgrass (APSEV); 94 g ai/ha): 0%
- percentage of weed control, APSEV (Silky windgrass (APSEV); 188 g ai/ha): 5%
- control of green foxtail (Green foxtail (SETVI); PTX at 890 g): 54%
- control of green foxtail (Green foxtail (SETVI); PYX at 90 g): 54%
- percentage of weed control, ORYSA (Redrice (ORYSA); 94 g ai/ha): 46%
- percentage of weed control, ORYSA (Redrice (ORYSA); 125 g ai/ha): 44%
- percentage of weed control, ORYSA (Redrice (ORYSA); 188 g ai/ha): 28%
- control of red rice (Redrice (ORYSA); [3]): 69%
- control of Palmer amaranth (AMAPA) (Palmer amaranth (AMAPA)): 69%
- percentage of weed control, POAAN (Annual bluegrass (POAAN); 94 g ai/ha): 0%
- percentage of weed control, POAAN (Annual bluegrass (POAAN); 188 g ai/ha): 2%
- percentage of weed control, AVEFA (Wild oat (AVEFA); 94 g ai/ha): 0%
- percentage of weed control, AVEFA (Wild oat (AVEFA); 188 g ai/ha): 5%
- control of wild oats (AVEFA) (Wild oat (AVEFA); BFL at 125 g/ha, combination of both): 0%
- control of wild oats (Wild oat (AVEFA); [3]): 15%
- control of wild oats (AVEFA) (Wild oat (AVEFA); BFL at 188 g/ha, combination of both): 5%
- percentage of weed control, Barnyardgrass ECHCG (Barnyardgrass (ECHCG); COC 1%, rate g ai/ha by row: r5 94, r6 125, r7 250, r8 1.25, r9 2.5, r10 5, r11 94+1.25, r13 125+1.25, r15 94+2.5, r17 125+2.5, r19 94+5, r21 125+5): 5%
- control of barnyardgrass (ECHCG) (Barnyardgrass (ECHCG); [2]): 6%
